Experimental findings from patent US8492515B2 (priority 2008, dated 2013) are described below.

The test system of data set [1] is E. coli HK179. To be noted: HK179, 16 h. The source says: (§1) To investigate the activity of the A3-APO metabolites, Chex1-Arg20 single chain unit and an Arg7-Arg20 common cleavage fragment were synthesized and studied for their ability to kill Enterobacteriaceae strains in undiluted Muller-Hinton broth, a true measure of potential clinical viability (Otvos et al., 2005. J. Med. Chem. 48: 5349-5359). The peptides of the invention were made on a CEM Liberty automated synthesizer with standard Fmoc-chemistry. The peptides were detached from the resin with the carboxyl terminus of the C-terminal Arg residue being in the form of an amino amide, —C(O)—NH2 (“Chex1-Arg20-NH2” and “Arg7-Arg20-NH2”), while still in the microwave chamber, and were purified by RP-HPLC. […] The biological studies carried out on chemically synthesized peptides in this example and succeeding examples were carried out on the C-terminal modified versions of the peptides wherein the C-terminal carboxylic acid function was in the form of an amide, —C(O)—NH2. Antibacterial growth inhibition assays were performed using sterile 96-well polypropylene plates (Nunc F96 microtiter plates) in a final volume of 100 μL as described previously (Cudic et al., 2002. Peptides 23: 271-283). The cell concentrations were estimated by measuring the ultraviolet absorbance at 600 nm and applying the formula cfu/mL=A600(3.8×10^8), where cfu is the number of colony-forming units. Briefly, 50 μL of a suspension of midlogarithmic phase bacterial cultures diluted to 5×10^5 cfu/mL in Muller-Hinton broth (MHB) was added to 50 μL of serially diluted peptides also dissolved in MHB. The final peptide concentration was 128 μg/mL. Cultures were then incubated at 37° C., 5% CO2 for 16-20 h without shaking, and growth inhibition was measured by recording the absorbance at 600 nm using a microplate reader. […] The minimal inhibitory concentration indicates the lowest peptide dose where no visible bacterial growth is detected after 16 hours incubation in full strength Muller-Hinton broth at 37° C. The peptide Chex-pyrr-Dap dimer was also included in the study. […] (Cudic et al., 2002. Peptides 23: 271-283).

Data set [2] has as its system K. pneumoniae HK123. The following applies: HK123, 16 h.
Source text: as §1

Data set [3] relates to E. coli SEQ102. To be noted: SEQ102, 16 h.
Source text: as §1

Data set [4] deals with Enterobacteriaceae strains.
Source text: as §1

Data set [5] relates to S. typhimurium G10215. The following applies: G10215, 16 h.
Source text: as §1

For data set [6], the system named is Escherichia coli 5770. Briefly: Mouse survival after last dose, systemic infection model without cisplatin pretreatment. The following applies: 40 mg/kg. It is filed as in vivo. Here is the method: The survival rate and the dynamics of survival of mice after the last dose of an antibacterial peptide treatment (12 hours post-infection) were measured in a mouse model of Escherichia coli 5770 systemic infection. In this particular study, the animals were not pretreated with cisplatin. Ten animals were used in each group. […] In the control (infected, non-treated) and the imipenem treated rows, the first numbers reflect the number of surviving animals on the day of assay measuring the efficacy of the Chex1-Arg20 and the second numbers are the surviving control animals on the day of the A3-APO efficacy assay.

Data set [7] deals with extended-spectrum β-lactamase producing E. coli strain (designation 5770). Briefly: Systemic infection model, cisplatin-pretreated CD-1 mice, blood bacterial counts. The data set is classed as in vivo. To be noted: 40 mg/kg ip. Here is the method:
As peptide drugs, such as antimicrobial peptides, are predominantly cleared through the kidneys (Klootwijk et al., 1997. J. Clin. Endocrinol. Metab. 82: 3068-3073) and the kidney functions of mice are 20-fold faster than those of humans, CD-1 female mice of 15-20 g were pretreated with 18 mg/kg cisplatin for 3 days to impair kidney clearance similar to the levels observed in humans (Mathe et al., 2006. Lab. Anim. 40: 296-300) before they were challenged intraperitoneally (ip) with 10^8 CFU per g mouse of an extended-spectrum β-lactamase producing E. coli strain (designation 5770). Four, 8 and 12 hours after challenge 10 or 20 mg/kg peptide Chex1-Arg20 or 40 mg/kg imipenem (as a positive control) were administered ip to 10 mice in each group. Imipenem is a broad spectrum β-lactam antibiotic. Prior to drug administration at all three timepoints, blood was taken from the tail vein of 3-5 mice for determining blood bacterial counts. […] Antimicrobials were administered ip 4 hours after challenge 3 times in 4 hour intervals. Blood was taken immediately before antimicrobial treatments. Numbers in parentheses indicate the number of mice with <10^3 CFU/mL. Bacterial counts were determined 10 times from different dilution of blood from 5 mice in each group in each timepoints.

Data set [8] is described as follows: ex vivo blood, protocol of 'Stability of Peptide A3-APO in Whole Blood'. The following applies: CD-1 mice, 37° C., up to 120 min.
Data set [9] in a line: approximately 100 μL retrieved blood (female CD-1 mice retroorbitally bled), ex vivo. The following applies: 37° C., up to 30 min.
Data set [10] in a line: blood taken from the eye of CD-1 mice injected intravenously with A3-APO. To be noted: up to 240 minutes.
Data set [11] concerns Escherichia coli 5770. Briefly: Blood bacterial counts before and after intraperitoneal dosing of infected CD-1 mice (FIGS. 4A, 4B). The data set is classed as in vivo. To be noted: compared with imipenem in the respective assay. The source says: FIGS. 4A and 4B illustrate blood bacterial counts before and after intraperitoneal drug dosing to Escherichia coli 5770 infected CD-1 mice. In FIG. 4A the symbols represent bacterial counts observed for infected and non-treated mice, A3-APO treated mice and imipenem treated mice. In FIG. 4B the symbols represent bacterial counts observed for infected and non-treated mice, Chex1-Arg20-NH2 treated mice and imipenem treated mice. Identical shapes if FIGS. 4A and 4B represent identical timepoints, respectively.
Both A3-APO and Chex1-Arg20 are active in lethal systemic infections. Efficacy is shown in both the increase of survival time and the reduction of blood bacterial counts. FIGS. 4A and 4B show blood bacterial counts before and after intraperitoneal drug dosing to Escherichia coli 5770 infected CD-1 mice. In FIG. 4A the symbols represent bacterial counts observed for infected and non-treated mice, A3-APO treated mice and imipenem treated mice. In FIG. 4B the symbols represent bacterial counts observed for infected and non-treated mice, Chex1-Arg20-NH2 treated mice and imipenem treated mice. Identical shapes if FIGS. 4A and 4B represent identical timepoints, respectively.

In data set [12] the test system is E. coli D31. The following applies: full strength Muller-Hinton broth, 16 hours, 37° C.
Source text: as §1

“Also recorded” adds a separate entry of the source. Bridge positions count the residues as written; N and C are the ends. Square brackets hold non-standard residues; d marks the D form. Ends that are not written are not given here. Peptide text beside a SMILES is read from it. I, II: the chains in the order shown. Ac6c = NC1(C(=O)O)CCCCC1; Dab = NCC[C@H](N)C(=O)O; Dap = NC[C@H](N)C(=O)O

For `CC[C@H](C)[C@H](NC(=O)[C@@H]1CCCN1C(=O)[C@H](CCCNC(=N)N)NC(=O)[C@@H]1CCCN1C(=O)[C@@H]1CCCN1C(=O)[C@@H](NC(=O)[C@@H]1CCCN1C(=O)[C@H](CCCNC(=N)N)NC(=O)[C@@H]1CCCN1C(=O)[C@H](CC(C)C)NC(=O)[C@H](Cc1ccc(O)cc1)NC(=O)[C@H](CO)NC(=O)CNC(=O)[C@H](CCCCN)NC(=O)[C@H](CC(=O)O)NC(=O)C1(N)CCCCC1)[C@@H](C)O)C(=O)N[C@@H](Cc1ccc(O)cc1)C(=O)N[C@@H](CC(N)=O)C(=O)N[C@@H](CCCNC(=N)N)C(=O)NC[C@H](NC(=O)[C@H](CCCNC(=N)N)NC(=O)[C@H](CC(N)=O)NC(=O)[C@H](Cc1ccc(O)cc1)NC(=O)[C@@H](NC(=O)[C@@H]1CCCN1C(=O)[C@H](CCCNC(=N)N)NC(=O)[C@@H]1CCCN1C(=O)[C@@H]1CCCN1C(=O)[C@@H](NC(=O)[C@@H]1CCCN1C(=O)[C@H](CCCNC(=N)N)NC(=O)[C@@H]1CCCN1C(=O)[C@H](CC(C)C)NC(=O)[C@H](Cc1ccc(O)cc1)NC(=O)[C@H](CO)NC(=O)CNC(=O)[C@H](CCCCN)NC(=O)[C@H](CC(=O)O)NC(=O)C1(N)CCCCC1)[C@@H](C)O)[C@@H](C)CC)C(=O)N[C@@H](CNC(C)=O)C(N)=O` [Chex-pyrr-Dap dimer] (I: H-[Ac6c]DKGSYLPRPTPPRPIYNR[Dap][Dap](Ac)-NH2 / II: H-[Ac6c]DKGSYLPRPTPPRPIYNR; amide I:20-II:C; N-terminus assumed), the “MIC against E. coli HK179” value in data set [1] is over 64 µg/mL. Also, the “MIC against K. pneumoniae HK123” value in data set [2] is over 64 µg/mL. In data set [3], the “MIC against E. coli SEQ102” value is over 64 µg/mL. Also, the “activity in full-strength Muller-Hinton broth” value in data set [4] (negative control) was “without significant activity”. Besides, the “MIC against S. typhimurium G10215” value in [5] is over 64 µg/mL.
For the compound `C[C@@H](O)[C@H]1C(=O)N2C(C(=O)O)=C(SCCN=CN)C[C@H]12` [Imipenem, reference compound], the “number of surviving mice (10 animals each)” value in [6] (0 h after last dose, day of the A3-APO assay) was determined as 9; in data set [6] (0 h after last dose, day of the Chex1-Arg20 assay) it was 10; in [6] (3 h after last dose, day of the A3-APO assay), 9; in [6] (3 h after last dose, day of the Chex1-Arg20 assay), 10; in [6] (6 h after last dose, day of the A3-APO assay), 9; in data set [6] (6 h after last dose, day of the Chex1-Arg20 assay), 10. Further, the “number of surviving mice (10 animals each)” value in [6] (9 h after last dose, day of the A3-APO assay) is 9; in data set [6] (9 h after last dose, day of the Chex1-Arg20 assay), 10; in data set [6] (12 h after last dose, day of the A3-APO assay) it was 9; in data set [6] (12 h after last dose, day of the Chex1-Arg20 assay) it was 10. The “Bacterial counts in blood after inoculation/challenge” value in [7] (4 h (blood taken before first dose)) is given as 3.2 × 10^5 CFU/mL; in [7] (8 h) it was 3.7 × 10^3 CFU/mL; in data set [7] (12 h), < 1.2 × 10^3 CFU/mL.
With “Chex-Arg-Pro-Asp-Lys-Pro-Arg-Pro-Tyr-Leu-Pro-Arg-Pro-Arg-Pro-Pro-Arg-Pro-Val-Arg”, in data set [8], the cleaved bond result is “Val19-Arg20”.
On to “(SEQ ID NO: 2)2-Dab (I: [Ac6c]RPDKPRPYLPRPRPPRPVR[Dab] / II: [Ac6c]RPDKPRPYLPRPRPPRPVR; amide I:21-II:C (inferred))”, for which the fragment found result was “Chex1-Val19; Chex-Arg-Pro-Asp-Lys-Pro-Arg-Pro-Tyr-Leu-Pro-Arg-Pro-Arg-Pro-Pro-Arg-Pro-Val (SEQ ID NO: 4), 30 min; also recorded: Chex1-Dab21; Chex-Arg-Pro-Asp-Lys-Pro-Arg-Pro-Tyr-Leu-Pro-Arg-Pro-Arg-Pro-Pro-Arg-Pro-Val-Arg-Dab (SEQ ID NO: 7), 30 min” in [9] and “Chex1-Arg20; Chex-Arg-Pro-Asp-Lys-Pro-Arg-Pro-Tyr-Leu-Pro-Arg-Pro-Arg-Pro-Pro-Arg-Pro-Val-Arg (SEQ ID NO: 2), major, 5 minutes” in data set [10].
Turning to “Chex-Arg-Pro-Asp-Lys-Pro-Arg-Pro-Tyr-Leu-Pro-Arg-Pro-Arg--Pro-Pro-Arg-Pro-Val-Arg-NH2 ([Ac6c]RPDKPRPYLPRPRPPRPVR-NH2) [Chex1-Arg20-NH2]”, the “reduction of blood bacterial counts” value in data set [11] is on record as “reduced the bacterial counts to levels identical to those observed after imipenem treatment”.
“RPYLPRPRPPRPVR-NH2 [Arg7-Arg20, Arg-Pro-Tyr-Leu-Pro-Arg-Pro-Arg-Pro-Pro-Arg-Pro-Val-Arg]”: the “MIC against E. coli D31” value in [12] is over 64 µg/mL. Further, the “MIC against E. coli HK179” value in data set [1] was over 64 µg/mL. In addition, the “MIC against K. pneumoniae HK123” value in data set [2] was over 64 µg/mL. The “MIC against E. coli SEQ102” value in [3] was over 64 µg/mL. Moreover, in data set [4], the “MIC values against the test strain” value was over 64 µg/mL. Moreover, in [5], the “MIC against S. typhimurium G10215” value is over 64 µg/mL.
